The text below walks through data of EP4471049A1 (Zealand Pharma A/S, priority 2023, dated 2024).

Broadly, the pIC50 is −log10 of the IC50, conventionally taken in molar units. Low readings indicate a large IC50, high ones a small IC50.

This assay has as its target T1, human IL-23R (Homo sapiens, UniProt Q5VWK5).
T1 sequence (Q5VWK5 22-629): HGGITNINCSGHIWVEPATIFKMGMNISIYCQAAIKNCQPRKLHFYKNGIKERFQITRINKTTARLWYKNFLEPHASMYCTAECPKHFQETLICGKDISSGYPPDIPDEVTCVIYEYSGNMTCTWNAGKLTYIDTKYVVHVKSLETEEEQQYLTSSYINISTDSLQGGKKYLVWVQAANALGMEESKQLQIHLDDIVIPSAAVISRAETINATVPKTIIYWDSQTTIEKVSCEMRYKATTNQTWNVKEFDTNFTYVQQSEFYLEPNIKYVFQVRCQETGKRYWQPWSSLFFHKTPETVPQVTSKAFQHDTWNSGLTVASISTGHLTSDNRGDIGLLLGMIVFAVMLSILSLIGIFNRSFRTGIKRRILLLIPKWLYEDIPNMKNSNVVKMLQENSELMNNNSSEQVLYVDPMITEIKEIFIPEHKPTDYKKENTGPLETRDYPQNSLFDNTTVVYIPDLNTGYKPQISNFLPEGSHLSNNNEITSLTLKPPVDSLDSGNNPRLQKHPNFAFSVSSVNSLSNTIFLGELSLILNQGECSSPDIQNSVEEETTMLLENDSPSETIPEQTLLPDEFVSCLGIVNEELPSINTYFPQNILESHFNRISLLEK
As to the kind of experiment: biochemical. To be noted: for Emax: read-out: % displacement (hIL-23R binding). An excerpt:
The compound binding affinity for IL-23R was estimated by the ability of compounds to displace a fluorophore-labelled reference compound from the human IL-23R. The assay principle relies on Bioluminescence Resonance Energy Transfer (BRET) between a fluorophore-labelled reference compound binding to the IL-23R part of a fusion protein consisting of the IL-23R fused to a Nanoluc luciferase enzyme (Nanoluc). The Nanoluc is placed in the N-terminus in close proximity to the binding domain of the ligand. Upon close proximity between the fluorophore of the fluorophore-labelled compound and the Nanoluc of the fusion protein, bioluminescence energy generated from conversion of a Nanoluc substrate, is transferred to the fluorophore resulting in an increase in BRET. In presence of an unlabelled compound, the unlabelled compound displaces the fluorophore-labelled peptide from its binding site resulting in a decrease in BRET. The concentration for which half of the fluorophore-labelled peptide is displaced by the unlabelled compound depends on the affinity of the compound for the IL-23R, and is termed the IC50 concentration.
The plasmid also contained a gene to confer resistance for the antibiotic hygromycin. A cell line stably expressing the Nluc-IL23R fusion protein was generated by transfection of HEK293 cells with the expression plasmid and selected with hygromycin for 3 weeks in Growth medium consisting of DMEM w/ Glutamax-I containing, 10% V/V FBS, 1% V/V P/S, 1 mM Sodium Pyruvate, and 1X NEAA, and 0.3 mg/mL hygromycin. The remaining cells were propagated and considered a stable expressing Nluc-IL23R fusion protein pool clone.
Cells expressing the Nluc-IL23R fusion protein were expanded in Growth medium and membranes prepared by homogenization of a cell pellet from 18 T175 flasks (4 °C in subsequent steps). The cell pellet was lysed Tris 10 mM, 7.5, 1 mM EDTA and protease inhibitors (Complete, Roche) and homogenized using a 15 mL glass-dounce by 50 strokes. The homogenate was spun at spin @1500 rpm for 10 min, the supernatant transferred to SV-34 tubes and spun at 40000g for 20 min at 4 °C to pellet the crude membranes. The supernatant was then removed, the pellet resuspended in 5 mL buffer containing 50 mM HEPES pH 7.4, 5 mM EGTA, and 5 mM MgCl2, and homogenized. Aliquots of the resuspended and homogenized membranes containing the Nluc-IL23R fusion protein were stored at -80 °C until use.
The plate was sealed with light impermeable plate seals, and incubated on an orbital shaker 400 rpm for 2 hours at room temperature. To determine the BRET ratio, the plate seal was removed and 25 µL of the Nanoluc substrate (Promega N1572) diluted 1:500 was added to each well and incubated for 1-2 minutes on an orbital shaker at 400 rpm. […] The BRET ratio was calculated as the fluorescence from the TAMRA/nanoluc bioluminescence.
Compound potency (IC50) and maximal displacement (% displacement) were estimated by computer-aided curve fitting using a 4-parameter logistic (4PL) non-linear model. […]
In this application, the inventors provide the data as IC50 values.

pIC50: −log10 of the molar value. *1 amine or outer side, *2 acyl side, *3 side chain or, on linkers, in order; H or OH if unused. Where a SMILES comes first, the peptide text is derived from it. Bridges are numbered along the chain shown (N, C = ends). [ ]: non-standard residue; d: D form. 2Nal = N[C@@H](Cc1ccc2ccccc2c1)C(=O)O; AEF = NCCOc1ccc(C[C@H](N)C(=O)O)cc1; X1 = O=C(Cc1ccc(CN[*:1])cc1)[*:2]; 3Pal = N[C@@H](Cc1cccnc1)C(=O)O; αMeL = CC(C)C[C@](C)(N)C(=O)O; CH2COCH2 = O=C(C[*:1])C[*:2]; NMeS = CN[C@@H](CO)C(=O)O; Dab = NCC[C@H](N)C(=O)O; βAla = NCCC(=O)O

For `CC(C)C[C@]1(C)NC(=O)[C@H](Cc2ccc3ccccc3c2)NC(=O)[C@H](Cc2ccc(OCCN)cc2)NC(=O)[C@@H]2CSCC(=O)CSC[C@H](NC(=O)[C@H](CO)NC(=O)[C@H](Cc3cccnc3)NC(=O)CCNC(=O)CC[C@@H](C(=O)N[C@H](CCCNC(=N)N)C(N)=O)NC1=O)C(=O)N[C@@H](Cc1c[nH]c3ccccc13)C(=O)N[C@@H](CCC(N)=O)C(=O)N2` [Compound 1, [3-Aminopropanoyl](4c)*[3-(3-Pyridyl)-Ala]SC(2a)WQC(2a)[Y(2-aminoethoxy)][2-Nal][2-Me-Leu]E(4c)[{d}R]-[NH2]] ([βAla][3Pal]SCWQC[AEF][2Nal][αMeL]E[dR]-NH2; linker 4-7 via CH2COCH2; lactam N-11), the “% displacement (hIL-23R binding)” value is 105% and the pIC50 is 8.27.

With `CC(C)C[C@]1(C)NC(=O)[C@H](Cc2ccc3ccccc3c2)NC(=O)[C@H](Cc2ccc(OCCN)cc2)NC(=O)[C@@H]2CSCC(=O)CSC[C@H](NC(=O)[C@H](CO)NC(=O)CCNC(=O)[C@H](Cc3cccnc3)NC(=O)CC[C@@H](C(=O)N[C@H](CCCNC(=N)N)C(N)=O)NC1=O)C(=O)N[C@@H](Cc1c[nH]c3ccccc13)C(=O)N[C@@H](CCC(N)=O)C(=O)N2` [Compound 2, [3-(3-Pyridyl)-Ala](4c)*[3-Aminopropanoyl]SC(2a)WQC(2a)[Y(2-aminoethoxy)][2-Nal][2-Me-Leu]E(4c)[{d}R]-[NH2]] ([3Pal][βAla]SCWQC[AEF][2Nal][αMeL]E[dR]-NH2; linker 4-7 via CH2COCH2; lactam N-11), the “% displacement (hIL-23R binding)” value is listed as 103% and the pIC50 was 8.54.

Regarding `CC(C)C[C@]1(C)NC(=O)[C@H](Cc2ccc3ccccc3c2)NC(=O)[C@H](Cc2ccc(OCCN)cc2)NC(=O)[C@@H]2CCNC(=O)CC[C@H](NC(=O)[C@H](CO)NC(=O)Cc3ccc(cc3)CNC(=O)CC[C@@H](C(=O)NC[C@@H](N[C@@H](Cc3cccnc3)C(N)=O)C(F)(F)F)NC1=O)C(=O)N[C@@H](Cc1c[nH]c3ccccc13)C(=O)N[C@@H](CCC(N)=O)C(=O)N2` [Compound 16, [4-Aminomethyl-phenylacetyl](1c)*SE(2c)WQ[Dab](2c)[Y(2-aminoethoxy)][2-Nal][2-Me-Leu]E(1c)[{d}Gly-CF3][3-(3-Pyridyl)-Ala]-[NH2]], the pIC50 was 9.89 and the Emax is 101%.

Consider `CC(C)C[C@]1(C)NC(=O)[C@H](Cc2ccc3ccccc3c2)NC(=O)[C@H](Cc2ccc(OCCN)cc2)NC(=O)[C@@H]2CCNC(=O)CC[C@H](NC(=O)[C@H](CO)NC(=O)Cc3ccc(cc3)CNC(=O)CC[C@@H](C(=O)NC[C@H](N[C@@H](Cc3cccnc3)C(N)=O)C(F)(F)F)NC1=O)C(=O)N[C@@H](Cc1c[nH]c3ccccc13)C(=O)N[C@@H](CCC(N)=O)C(=O)N2` [Compound 17, [4-Aminomethyl-phenylacetyl](1c)*SE(2c)WQ[Dab](2c)[Y(2-aminoethoxy)][2-Nal][2-Me-Leu]E(1c)[Gly-CF3][3-(3-Pyridyl)-Ala]-[NH2]], for which the “% displacement (hIL-23R binding)” value came to 98%.

As to `CNC(=O)[C@H](Cc1cccnc1)NC(=O)[C@H](CCN)NC(=O)[C@@H]1CCC(=O)NCc2ccc(cc2)CC(=O)N(C)[C@@H](CO)C(=O)N[C@H]2CCC(=O)NCC[C@H](NC(=O)[C@H](CCC(N)=O)NC(=O)[C@H](Cc3c[nH]c4ccccc34)NC2=O)C(=O)N[C@@H](Cc2ccc(OCCN)cc2)C(=O)N[C@@H](Cc2ccc3ccccc3c2)C(=O)N[C@@](C)(CC(C)C)C(=O)N1` [Compound 18, [4-Aminomethyl-phenylacetyl](1c)*[N-Me-Ser]E(2c)WQ[Dab](2c)[Y(2-aminoethoxy)][2-Nal][2-Me-Leu]E(1c)[Dab][3-(3-Pyridyl)-Ala]-[NHMe]] ([X1][NMeS]EWQ[Dab][AEF][2Nal][αMeL]E[Dab][3Pal]-NHMe; lactam 3-6, N-10), the negative logarithm of the IC50 (pIC50) is 10.82 and the Emax stood at 96%.

In the case of `CNC(=O)[C@H](Cc1cncnc1)NC(=O)[C@H](CCN)NC(=O)[C@@H]1CCC(=O)NCc2ccc(cc2)CC(=O)N[C@@H](CO)C(=O)N[C@H]2CCC(=O)NCC[C@H](NC(=O)[C@H](CCC(N)=O)NC(=O)[C@H](Cc3c[nH]c4ccccc34)NC2=O)C(=O)N[C@@H](Cc2ccc(OCCN)cc2)C(=O)N[C@@H](Cc2ccc3ccccc3c2)C(=O)N[C@@](C)(CC(C)C)C(=O)N1` [Compound 19, [4-Aminomethyl-phenylacetyl](1c)*SE(2c)WQ[Dab](2c)[Y(2-aminoethoxy)][2-Nal][2-Me-Leu]E(1c)[Dab][3-(3,5-Pyrimidyl)-Ala]-[NHMe]], the “% displacement (hIL-23R binding)” value amounted to 103% and the pIC50 was 10.27.

For the molecule `CNC(=O)[C@H](Cc1cccnc1)NC(=O)[C@H](CCN)NC(=O)[C@@H]1CCC(=O)NCc2ccc(cc2)CC(=O)N[C@@H](CO)C(=O)N[C@H]2CCC(=O)NCC[C@H](NC(=O)[C@H](C)NC(=O)[C@H](Cc3c[nH]c4ccccc34)NC2=O)C(=O)N[C@@H](Cc2ccc(OCCN)cc2)C(=O)N[C@@H](Cc2ccc3ccccc3c2)C(=O)N[C@@](C)(CC(C)C)C(=O)N1` [Compound 22, [4-Aminomethyl-phenylacetyl](1c)*SE(2c)WA[Dab](2c)[Y(2-aminoethoxy)][2-Nal][2-Me-Leu]E(1c)[Dab][3-(3-Pyridyl)-Ala]-[NHMe]] ([X1]SEWA[Dab][AEF][2Nal][αMeL]E[Dab][3Pal]-NHMe; lactam 3-6, N-10), the Emax was 96%.

On to `CNC(=O)[C@H](Cc1cccnc1)NC(=O)[C@H](CCN)NC(=O)[C@@H]1CCC(=O)NCc2ccc(cc2)CC(=O)N[C@@H](CO)C(=O)N[C@H]2CCC(=O)NCC[C@H](NC(=O)[C@H](Cc3ccccc3)NC(=O)[C@H](Cc3c[nH]c4ccccc34)NC2=O)C(=O)N[C@@H](Cc2ccc(OCCN)cc2)C(=O)N[C@@H](Cc2ccc3ccccc3c2)C(=O)N[C@@](C)(CC(C)C)C(=O)N1` [Compound 23, [4-Aminomethyl-phenylacetyl](1c)*SE(2c)WF[Dab](2c)[Y(2-aminoethoxy)][2-Nal][2-Me-Leu]E(1c)[Dab][3-(3-Pyridyl)-Ala]-[NHMe]] ([X1]SEWF[Dab][AEF][2Nal][αMeL]E[Dab][3Pal]-NHMe; lactam 3-6, N-10), for which the “% displacement (hIL-23R binding)” value worked out at 97%.

With `CNC(=O)[C@H](Cc1cccnc1)NC(=O)[C@H](CCN)NC(=O)[C@@H]1CCC(=O)NCc2ccc(cc2)CC(=O)N[C@@H](CO)C(=O)N[C@H]2CCC(=O)NCC[C@H](NC(=O)[C@H](CCCCNC(C)=O)NC(=O)[C@H](Cc3c[nH]c4ccccc34)NC2=O)C(=O)N[C@@H](Cc2ccc(OCCN)cc2)C(=O)N[C@@H](Cc2ccc3ccccc3c2)C(=O)N[C@@](C)(CC(C)C)C(=O)N1` [Compound 24, [4-Aminomethyl-phenylacetyl](1c)*SE(2c)W[K(Ac)][Dab](2c)[Y(2-aminoethoxy)][2-Nal][2-Me-Leu]E(1c)[Dab][3-(3-Pyridyl)-Ala]-[NHMe]] ([X1]SEWK(Ac)[Dab][AEF][2Nal][αMeL]E[Dab][3Pal]-NHMe; lactam 3-6, N-10), the “% displacement (hIL-23R binding)” value is listed as 97% and the pIC50 was 10.85.
